From US20250383339A1, “DESIGN AND APPLICATION OF NOVEL LIGAND-INDUCED SPLIT-PROTEIN SYSTEMS” (ARIZONA BOARD OF REGENTS ON BEHALF OF THE UNIVERSITY OF …, priority 2022, published 2025)
Entries after “also recorded” stand apart in the source; their conditions may differ. One block for each molecule: values may come before it.

Key:
[1] = biological target: T1, Bcl-xL 209 R139A (Homo sapiens, UniProt Q07817, R139A); experiment: split-luciferase complementation assay of split Bcl-xL 209 R139A in HEK293T cells; format: cell-based; conditions: split-luciferase signal
T1 construct: expressed in transfected cells; host or cells: HEK293T
T1 sequence (Q07817 113-209 R139A, one chain of several): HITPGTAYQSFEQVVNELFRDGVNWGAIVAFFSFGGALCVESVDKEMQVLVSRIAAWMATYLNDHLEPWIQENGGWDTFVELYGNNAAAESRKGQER
Excerpt: (§1) To design split Bcl-xL, a suitable readout was required to measure successful ligand-dependent reassembly. A split-luciferase complementation assay was used, which was originally identified by rapamycin-induced complementation of FKBP and FRB. The split protein constructs were designed such that split-firefly luciferase-dependent luminescence would only be generated upon dimerization of N-Bcl-xL and C-Bcl-xL fragments […] (FIG. 2A). The split-protein constructs were created for each of the Bcl-xL split sites (FIG. 2B) and tested by transient transfection into HEK293T cells with the addition of either a Bcl-xL ligand or DMSO.
Low passage (≤25) cells were seeded onto T-75 (Fisher) flasks at 1E6 cells per mL and grown for 24 hours in complete media. […] Cells were transfected for ˜16 h, then were trypsinized and quantified. […] Cell lysis was clarified via centrifugation, and 50 μL of clarified lysate was plated per well on a white U-bottom luminescence plate. 80 μL of L-GLO was added to each well, and the plate was incubated at room temperature for 25-40 minutes before luminescence was read on a Centro XS3 LB960 (Berthold Technologies) microplate luminometer. Separately, clarified lysate was quantified using a Micro-BCA kit (Pierce), and luminescence was normalized to RLU per microgram of total protein using Microsoft Excel. […]

[2] = tested on: split-Src controlled by split Bcl-xL; experiment: anti-phosphotyrosine western blot of split-Src controlled by split Bcl-xL in HEK293T cells; format: cell-based, human; conditions: for global tyrosine phosphorylation: N-Bcl-xL 1-112 / C-Bcl-XL WT 113-209 split-Src, 10 µM ligand vs DMSO
Method: The most ligand-responsive fragments, N-Bcl-xL 1-112 and C-Bcl-XL WT 113-209, were cloned into existing full-length split-Src constructs. N-Bcl-xL was attached via a 25-residue linker to the N-terminus of N-Src. C-Bcl-XL WT was attached via a 25-residue linker to C-Src Y530F (FIG. 4A). Each split-kinase system was tested in HEK293T cells via transient transfection and treated with either DMSO or 10 µM of Bcl-xL ligands A-1155463, ABT-263, or ABT-737. […] More importantly, this novel CID system can likely be used in combination with the three existing CID systems to generate additional layers of control in cells for controlling pathways with externally added small molecules. For example, a split kinase and a corresponding split phosphatase may be used in conjunction with a split target protein (e.g., as described herein) to examine any given phosphorylation pathway in a cell. In some embodiments, the split target protein may be either upstream or downstream of a phosphorylation cascade (e.g., the split kinase). The aforementioned system would allow precise signaling studies to be undertaken by titration of two or more ligands (e.g., small molecules; e.g., one ligand for each split protein in the system).

[3] = biological target: Bcl-xL (Homo sapiens, UniProt Q07817); conditions: in the literature; cited from earlier work
Sequence of Bcl-xL (Q07817 whole entry): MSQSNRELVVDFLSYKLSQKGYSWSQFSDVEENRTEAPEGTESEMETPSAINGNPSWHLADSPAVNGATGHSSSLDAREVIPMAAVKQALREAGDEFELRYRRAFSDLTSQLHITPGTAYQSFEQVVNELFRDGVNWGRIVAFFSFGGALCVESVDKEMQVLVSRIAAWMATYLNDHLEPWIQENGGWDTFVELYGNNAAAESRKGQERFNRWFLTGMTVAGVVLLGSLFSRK

[4] = tested on: Bcl-xL WT and Bcl-xL R139A; experiment: split-luciferase assay, Bcl-xL 209 R139A side-by-side with wild-type parent; format: cell-based, human; conditions: α3-α4 split site, 50 nM ligand, 5 ng of each FLuc construct (FIG. 3)
Method: Low passage (≤25) cells were seeded onto T-75 (Fisher) flasks at 1E6 cells per mL and grown for 24 hours in complete media. Transient transfections were performed using PolyJet (SignaGen). 96-well culture plates were coated with 50 μL/well of 50 μg/mL solution of poly-D-lysine (MilliPore) and incubated at 4C overnight. Cells were transfected for ˜16 h, then were trypsinized and quantified. Cells were plated onto coated 96-well plates at 1E4 cells/well in DMEM supplemented with 0.5% v/v FBS. Treatment was dissolved in DMSO and added to a final DMSO concentration of 0.05% by volume. Cells were grown in treatment media for 24 h before being lysed with an in-house detergent-based buffer. Cell lysis was clarified via centrifugation, and 50 μL of clarified lysate was plated per well on a white U-bottom luminescence plate. 80 μL of L-GLO was added to each well, and the plate was incubated at room temperature for 25-40 minutes before luminescence was read on a Centro XS3 LB960 (Berthold Technologies) microplate luminometer. Separately, clarified lysate was quantified using a Micro-BCA kit (Pierce), and luminescence was normalized to RLU per microgram of total protein using Microsoft Excel. All data presented were plotted using Kaleidagraph (Synergy) 3.5.

[5] = tested on: split-Src controlled by the ABI/PYL CID system; experiment: anti-phosphotyrosine western blot of split-Src controlled by the ABI/PYL CID system; format: cell-based; conditions: for phosphorylation / kinase activity of ABI/PYL split-Src with CID alone: abscisic acid CID alone
Method: It was hypothesized that there might be off-target kinase inhibition by ABT-263, which is not present in the other ligands tested. To interrogate this potential off-target kinase inhibition, an orthogonal split-Src construct design was employed with ABI and PYL domains and the CID, abscisic acid. The split-Src was tested as fragments without CID, fragments with CID, and fragments with CID plus ABT-263.

[6] = biological target: T2, C-Bcl-XL WT 113-209 split-firefly-luciferase fusion (human, UniProt Q07817 113-209); experiment: split-luciferase complementation in HEK293T cells, reassembly induced by ABT-263
T2 construct: not shown: split firefly luciferase half (NFluc or CFluc) with any linker
T2 sequence (Q07817 113-209): as the sequence (Q07817 113-209 R139A, one chain of several) above, with A27R counted along it
Excerpt: Fold change is indicated as a measure of small-molecule dependence of the luminescence.
as §1

Molecule: CN(C)CC#Cc1ccc(OCCCc2sc(N3CCc4cccc(C(=O)Nc5nc6ccccc6s5)c4C3)nc2C(=O)O)c(F)c1 [A-1155463]
ligand-induced reassembly (induced dimerization) of Bcl-xL 209 R139A [1]: did not induce significant reassembly
global tyrosine phosphorylation [2]: significant increases in global tyrosine phosphorylation
binding affinity to Bcl-xL [3]: sub-nanomolar
split-luciferase signal, difference between Bcl-xL WT and R139A in ligand-induced reassembly [4]: preferential binding for wild-type C-Bcl-XL 113-209 over the R139A mutant

Molecule: CC1(C)CCC(c2ccc(Cl)cc2)=C(CN2CCN(c3ccc(C(=O)NS(=O)(=O)c4ccc(N[C@H](CCN5CCOCC5)CSc5ccccc5)c(S(=O)(=O)C(F)(F)F)c4)cc3)CC2)C1 [ABT-263]
global tyrosine phosphorylation [2]: significant increases in global tyrosine phosphorylation
intensity of induced phosphorylation compared to A-1155463 and ABT-737 ([2]; split-Src controlled by split Bcl-xL): lower intensity of induced phosphorylation
phosphorylation / kinase turn-on of ABI/PYL split-Src on addition of ABT-263 with abscisic acid ([5]; fragments with abscisic acid CID plus ABT-263): lesser amount of kinase turn-on; also recorded: phosphorylation is slightly decreased
split-luciferase signal, difference between Bcl-xL WT and R139A in ligand-induced reassembly [4]: respond similarly; also recorded: no significant difference

Molecule: CN(C)CC[C@H](CSc1ccccc1)Nc1ccc(S(=O)(=O)NC(=O)c2ccc(N3CCN(Cc4ccccc4-c4ccc(Cl)cc4)CC3)cc2)cc1[N+](=O)[O-] [ABT-737]
global tyrosine phosphorylation [2]: significant increases in global tyrosine phosphorylation

Molecule: CC1=CC(=O)CC(C)(C)[C@@]1(O)/C=C/C(C)=C\C(=O)O [abscisic acid]
phosphorylation / kinase activity of ABI/PYL split-Src with CID alone [5]: strong phosphorylation
phosphorylation / kinase activity of ABI/PYL split-Src with CID alone ([5]; listed as ABA): turns the kinase activity on

binding result [6]: binds
B1: N-Bcl-xL 1-112 split-firefly-luciferase fusion (α3-α4 split site) (other)
chain: MEDAKNIKKGPAPFYPLEDGTAGEQLHKAMKRYALVPGTIAFTDAHIEVNITYAEYFEMSVRLAEAMKRYGLNTNHRIVVCSENSLQFFMPVLGALFIGVAVAPANDIYNERELLNSMNISQPTVVFVSKKGLQKILNVQKKLPIIQKIIIMDSKTDYQGFQSMYTFVTSHLPPGFNEYDFVPESFDRDKTIALIMNSSGSTGLPKGVALPHRTACVRFSHARDPIFGNQIIPDTAILSVVPFHHGFGMFTTLGYLICGFRVVLMYRFEEELFLRSLQDYKIQSALLVPTLFSFFAKSTLIDKYDLSNLHEIASGGAPLSKEVGEAVAKRFHLPGIRQGYGLTETTSAILITPEGDDKPGAVGKVVPFFEAKVVDLDTGKTLGVNQRGELCVRGPMIMSGYVNNPEATNALIDKDGCGRGGSGGGGSGGGGSVDGGSGGQLDIMSQSNRELVVDFLSYKLSQKGYSWSQFSDVEENRTEAPEGTESEMETPSAINGNPSWHLADSPAVNGATGHSSSLDAREVIPMAAVKQALREAGDEFELRYRRAFSDLTSQL
notes: Expressed by transient transfection in HEK293T cells; also called N-Bcl-xL (aa 1-112)
